Measurements published in ChEMBL document CHEMBL1201862, “PubChem BioAssay data set” (2004).
The source made the active and inactive calls.

Key:
[1] = M. tuberculosis growth inhibition, HTS (AID 449762); format: functional
[2] = microbe, parasite or virus in culture; format: functional; settings: Mycobacterium tuberculosis
[3] = target: Heat shock protein HSP 90-alpha (Homo sapiens, UniProt P07900); experiment: Luminescence-based dose response biochemical high throughput screening assay for inhibitors of the Heat Shock Protein 90 (HSP90). [Related pubchem assays: 1831 (Summary AID.), 1846 (Confirmation screen.), 1789 (Primary screen.)]
[4] = HIV-1 Vif–A3G interaction blockers – biochemical, TR-FRET, GST-Vif 1-94, biotin-A3G peptide, dose response retest, primary screen (AID 1117319); format: functional;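 further: TR-FRET signal of purified GST-Vif binding a biotinylated A3G peptide; inhibitors lower the FRET signal by blocking Vif and A3G binding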
Vero = experiment: mammalian cell viability reduction – secondary assay, cytotoxicity control for West Nile virus antiviral project, dose response (AID 1650); format: functional; settings: Chlorocebus sabaeus
[5] = viability of HCT116 lacking mutant beta-catenin – cell-based, human colon tumor, dose response (AID 1045); format: functional;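 further: HCT116 colon tumor cells with beta catenin knocked out; cells exposed to compound for 60 hours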
[6] = viability of PTEN-deleted HCT116 cells – cell-based, HCT116 PTEN knockout, dose response (AID 1047); format: functional;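 further: HCT116 colon tumor cells with PTEN knocked out; cells exposed to compound for 60 hours before readout; potency for loss of cell viability measured by luminescence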

## C/C(=N\NC(=O)c1cc2c(s1)CCC(C)C2)c1ccncc1 (stereo not drawn)
[1]
  IC50: > 100 µM (active)
[2]
  CC50: > 40 µM (active)

## CC(=O)CSc1nnc(-c2ccc3c(c2)OCO3)o1
[3]
  IC50: 9.39 µM (active)

## CC(C)NC(=O)C1CCCN(S(=O)(=O)c2cccs2)C1 (stereo not drawn)
[4]
  IC50: > 100 µM (active)

## COc1ccc(-c2cc(-c3ccc(C)cc3)nc(SCc3nnc(-c4ccccc4)o3)c2C#N)cc1OC
Vero
  CC50: 14.1 µM (active)
[5]
  EC50: 4.36 µM (active)
[6]
  EC50: 4.41 µM (active)

## CCCc1ncc(CN2CCCC(C(=O)Nc3ccc(-c4cccc(OC)c4)cc3)C2)cn1 (stereo not drawn)
[1]
  IC50: > 100 µM (active)
